# Measurements taken from ChEMBL document CHEMBL3046513, “Synthesis, characterization, and biological evaluation of some N-aryl hydrazones and their 2,3-disubstituted-4-thiazolidinone derivatives” (Med Chem Res, 2013).
# The source made the active and inactive calls. No cut-off for these calls is given here.
# Columns and labels:
# [1] = tested on: Pseudomonas aeruginosa; test: Antibacterial activity against Pseudomonas aeruginosa ATCC 27853 assessed as growth inhibition by serial plate dilution method; format: functional
# [2] = tested on: Staphylococcus aureus; test: Antibacterial activity against Staphylococcus aureus ATCC 25923 assessed as growth inhibition by serial plate dilution method; format: functional
# [3] = tested on: Candida albicans; test: Antifungal activity against Candida albicans assessed as growth inhibition by serial plate dilution method; format: functional
# [4] = tested on: Mus musculus; test: Acute toxicity in Mus musculus Swiss albino (mouse) assessed as mortality at 500 to 2500 mg/kg, po after 4 to 24 hr; format: organism-based; design: route oral; conditions: in vivo
# [5] = tested on: Bacillus cereus; test: Antibacterial activity against Bacillus cereus assessed as growth inhibition by serial plate dilution method; format: functional
# [6] = tested on: Candida albicans; test: Ratio of fluconazole MIC to compound MIC for Candida albicans; format: functional
# [7] = tested on: Escherichia coli; test: Antibacterial activity against Escherichia coli ATCC 25922 assessed as growth inhibition by serial plate dilution method; format: functional
# [8] = tested on: Mus musculus; test: Acute toxicity in Mus musculus Swiss albino (mouse) assessed as behavioral changes at 500 to 2500 mg/kg, po after 4 to 24 hr; format: organism-based; design: route oral; conditions: in vivo
# [9] = tested on: Mus musculus; test: Analgesic activity in Mus musculus […] albino (mouse) assessed as time taken to tail withdrawl at 100 mg/kg, po administered through intragastric tube after 60 min by tail flick test (reference value: 1.363 +/- 0.1297 secs); format: functional
# [10] = tested on: Rattus norvegicus; test: Anti-inflammatory activity in Rattus norvegicus (rat) assessed as decrease in carrageenan-induced paw edema at 100 mg/kg, po administered 30 min prior to carrageenan challenge measured after 180 min (reference value: 2.275 +/- 0.1181 mm); format: functional
# [11] = tested on: Mus musculus; test: Analgesic activity in Mus musculus […] albino (mouse) assessed as time taken to tail withdrawl at 100 mg/kg, po administered through intragastric tube after 120 min by tail flick test (reference value: 1.363 +/- 0.1297 secs); format: functional
# [12] = tested on: Mus musculus; test: Analgesic activity in Mus musculus […] albino (mouse) assessed as time taken to tail withdrawl at 100 mg/kg, po administered through intragastric tube after 180 min by tail flick test (reference value: 1.363 +/- 0.1297 secs); format: functional
# [13] = tested on: Rattus norvegicus; test: Anti-inflammatory activity in Rattus norvegicus (rat) assessed as decrease in carrageenan-induced paw edema at 100 mg/kg, po administered 30 min prior to carrageenan challenge measured after 120 min (reference value: 2.375 +/- 0.1436 mm); format: functional
# [14] = tested on: Rattus norvegicus; test: Anti-inflammatory activity in Rattus norvegicus (rat) assessed as decrease in carrageenan-induced paw edema at 100 mg/kg, po administered 30 min prior to carrageenan challenge measured after 60 min (reference value: 2.175 +/- 0.1797 mm); format: functional
# [15] = tested on: Radical scavenging activity; test: Antioxidant activity assessed as inhibition of DPPH radical generation at 200 to 800 ug/mL after 20 min by spectrophotometric analysis; format: functional
# [16] = tested on: Radical scavenging activity; test: Antioxidant activity assessed as inhibition of DPPH radical generation at 400 ug/mL after 20 min by spectrophotometric analysis relative to control; format: functional
# [17] = tested on: Radical scavenging activity; test: Antioxidant activity assessed as inhibition of DPPH radical generation at 200 ug/mL after 20 min by spectrophotometric analysis relative to control; format: functional
# [18] = tested on: Radical scavenging activity; test: Antioxidant activity assessed as inhibition of DPPH radical generation at 800 ug/mL after 20 min by spectrophotometric analysis relative to control; format: functional
SMILES,MIC [1],MIC [2],MIC [3],Activity [4],MIC [5],Ratio [6],MIC [7],Activity [8],Time [9],Activity [10],Time [11],Time [12],Activity [13],Activity [14],inhibition [15],inhibition [16],inhibition [17],inhibition [18]
COc1ccc(Br)c(C(=O)N/N=C\c2ccccc2)c1,12.5 µg/mL,12.5 µg/mL,1.56 µg/mL,Non-toxic,12.5 µg/mL,5,12.5 µg/mL,Non-toxic,–,–,–,–,–,–,–,–,–,–
COc1ccc(Br)c(C(=O)NN2C(=O)CSC2c2ccc(C)cc2)c1 (centres undefined),12.5 µg/mL,6.25 µg/mL,6.25 µg/mL,–,12.5 µg/mL,–,12.5 µg/mL,–,2.038 s,1.95 mm,2.088 s,2.225 s,1.9 mm,1.525 mm,inactive,–,–,–
COc1ccc(Br)c(C(=O)NN2C(=O)CSC2c2ccccc2O)c1 (centres undefined),6.25 µg/mL,6.25 µg/mL,3.12 µg/mL,–,12.5 µg/mL,–,12.5 µg/mL,–,3.546 s,2.081 mm,3.623 s,2.235 s,1.98 mm,1.88 mm,inactive,–,–,–
COc1ccc(Br)c(C(=O)NN2C(=O)CSC2c2cccc(Cl)c2)c1 (centres undefined),6.25 µg/mL,12.5 µg/mL,1.56 µg/mL,Non-toxic,6.25 µg/mL,5,12.5 µg/mL,Non-toxic,2.825 s,1.6 mm,2.8 s,2.438 s,1.65 mm,1.575 mm,–,58.5%,57.6%,59.5%
COc1ccc(Br)c(C(=O)NN2C(=O)CSC2c2ccccc2OC)c1 (centres undefined),6.25 µg/mL,6.25 µg/mL,6.25 µg/mL,–,6.25 µg/mL,–,12.5 µg/mL,–,2.175 s,2.075 mm,2.075 s,2.238 s,1.95 mm,1.825 mm,inactive,–,–,–
COc1ccc(Br)c(C(=O)NN2C(=O)CSC2c2ccc(O)c(OC)c2)c1 (centres undefined),6.25 µg/mL,6.25 µg/mL,12.5 µg/mL,–,6.25 µg/mL,–,12.5 µg/mL,–,3.468 s,1.78 mm,3.334 s,2.841 s,1.77 mm,1.528 mm,inactive,–,–,–
COc1ccc(Br)c(C(=O)NN2C(=O)CSC2c2ccc([N+](=O)[O-])cc2)c1 (centres undefined),12.5 µg/mL,6.25 µg/mL,6.25 µg/mL,–,6.25 µg/mL,–,6.25 µg/mL,–,3.375 s,1.975 mm,3.263 s,2.663 s,1.8 mm,1.45 mm,–,5.81%,inactive,13%
COc1ccc(C2SCC(=O)N2NC(=O)c2cc(OC)ccc2Br)cc1 (centres undefined),6.25 µg/mL,6.25 µg/mL,6.25 µg/mL,–,6.25 µg/mL,–,12.5 µg/mL,–,2.388 s,1.875 mm,2.575 s,2.513 s,1.75 mm,1.6 mm,–,58.2%,57.5%,59.5%
COc1ccc(Br)c(C(=O)NN2C(=O)CSC2c2cccc3cc(OC)ccc23)c1 (centres undefined),6.25 µg/mL,12.5 µg/mL,6.25 µg/mL,–,12.5 µg/mL,–,6.25 µg/mL,–,1.954 s,1.98 mm,2.214 s,2.53 s,1.89 mm,1.515 mm,–,52.4%,38.3%,58.3%
COc1ccc(Br)c(C(=O)NN2C(=O)CSC2c2ccc(F)cc2)c1 (centres undefined),12.5 µg/mL,12.5 µg/mL,6.25 µg/mL,–,6.25 µg/mL,–,6.25 µg/mL,–,2.923 s,2.2 mm,3.421 s,3.241 s,2.05 mm,2 mm,–,51%,37.8%,57.1%
